From PMC9616851, “Structural mechanism of SGLT1 inhibitors” (Nature Communications, 2022) come the findings set out here.

This assay has as its target T1, hSGLT1 (Homo sapiens, UniProt P13866).
T1 construct: gene SLC5A1; hSGLT1GFP-MAP17nb: GFP fused between Q581 and E582 of hSGLT1; anti-GFP nanobody fused after E57 of MAP17 (1-57); in nanodisc; with MAP17
T1 sequence (P13866 1-581): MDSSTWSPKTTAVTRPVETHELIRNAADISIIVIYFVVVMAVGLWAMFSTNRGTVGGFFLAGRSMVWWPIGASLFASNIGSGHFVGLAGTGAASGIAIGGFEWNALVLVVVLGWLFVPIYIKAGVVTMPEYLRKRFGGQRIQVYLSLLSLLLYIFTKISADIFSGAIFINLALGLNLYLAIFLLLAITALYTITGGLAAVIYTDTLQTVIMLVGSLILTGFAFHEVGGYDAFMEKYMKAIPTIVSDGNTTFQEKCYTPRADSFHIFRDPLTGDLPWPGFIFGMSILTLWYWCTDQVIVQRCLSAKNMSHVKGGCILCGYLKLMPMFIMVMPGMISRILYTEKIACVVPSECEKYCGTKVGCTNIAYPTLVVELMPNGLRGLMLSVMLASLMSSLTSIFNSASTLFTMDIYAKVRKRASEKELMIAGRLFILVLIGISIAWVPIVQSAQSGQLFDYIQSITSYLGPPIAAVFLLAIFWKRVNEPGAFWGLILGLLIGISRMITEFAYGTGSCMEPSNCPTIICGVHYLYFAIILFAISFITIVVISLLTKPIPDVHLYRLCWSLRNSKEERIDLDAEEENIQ
T1 sequence (P13866 582-664): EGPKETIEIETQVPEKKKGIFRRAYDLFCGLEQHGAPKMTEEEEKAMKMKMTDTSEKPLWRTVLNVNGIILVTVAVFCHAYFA
T1 sequence (Q13113 1-57 partner): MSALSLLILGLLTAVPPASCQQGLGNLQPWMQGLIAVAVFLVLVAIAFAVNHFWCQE
Description: cryo-EM structure at […] Å; 1-NBD-glucose uptake inhibition in cells (IC50 […] for this construct, […] for non-tagged hSGLT1). The class given is cell-based.

Turning to `CS[C@H]1O[C@@H](c2ccc(C)c(Cc3ccc(CCCC(=O)NC(C)(C)C(=O)NCCN(C)C)cc3)c2)[C@H](O)[C@@H](O)[C@@H]1O` [LX2761], it took 2.3 nM to reach half-maximal inhibition (IC50).
